These results are taken from BindingDB's records for doi:10.1021/jm960331f (Oregon State University, 1996).

The test in a line: determined in L-pipecolate oxidase from Rehsus monkey.

Regarding `O=C(O)[C@@H]1CCCCN1` [(S)-pipecolate], the Ki (in general, a measure of affinity in units of concentration, obtained from inhibition or displacement) came to 130 µM.
